# Entries after “also recorded” stand apart in the source; their conditions may differ.
# Tested on: A2780 cells
# Assay: MTT antiproliferative assay on A2780
# Assay type: cell-based, human
# Conditions: Homo sapiens, A2780, 10 μM; read-out: Growth inhibition (% ± SEM), A2780
# Protocol: (§1) The antiproliferative assays of the products were carried out by a standard MTT method on human breast (MCF-7, T47D), cervical (HeLa, SiHa, C33A), and ovarian (A2780) cancer cells, and NIH/3T3 mouse embryonic fibroblast cell lines. In the first step, the diastereomeric and racemic mixtures 1–11 and the starting compound, juncuenin B, were tested to obtain information about their antiproliferative activity.
# (§2) The antiproliferative activity and tumor selectivity of the compounds were measured by standard MTT assays. Tumor cell lines MCF-7, T47D, HeLa, A2780, and noncancerous NIH/3T3 were provided by European Collection of Authenticated Cell Cultures (ECACC, Salisbury, UK); cell lines SiHa and C33A by LGC Standards GmbH (Wesel, Germany). All chemicals and materials used for the antiproliferative assays were purchased from Sigma Aldrich Ltd. (Budapest, Hungary).
# (§3) Growth-inhibition properties of racemates and pure enantiomer compounds were determined by standard MTT assays on six human malignant gynecological cell lines (MCF-7, T47D, HeLa, SiHa, C33A, A2780). To investigate tumor selectivity, the MTT assay was repeated on mouse embryonic fibroblast cells (NIH/3T3) under the same conditions. All cell lines were maintained in minimal essential medium (MEM) supplemented with 10% fetal bovine serum, 1% nonessential amino acids, and 1% penicillin–streptomycin–amphotericin B mixture, and were stored in humidified air containing 5% CO2 at 37 °C. All cell types were seeded into 96–well plates at a density of 5000 with the exception of C33a, which was seeded at a density of 10 000 and treated by increasing concentrations (0.1–30 μM) of the compounds for 72 h under cell culturing conditions. After the incubation, 5 mg/mL MTT [3-(4,5-dimethylthiazol-2-yl)-2,5-diphenyltetrazolium bromide] solution was added to samples for 4 h and precipitated blue formazan crystals were dissolved in DMSO. Absorbance values of the samples were measured at 545 nm using a microplate reader (Stat Fax-2100, Awareness Technologies Inc., Palm City, FL, USA) and untreated cells were used as control. Normalized sigmoidal dose–response curves were fitted to the determined data and the IC50 values were calculated by GraphPad Prism 5.01 (GraphPad Software, San Diego, CA, USA). Cisplatin (Ebewe Pharma GmbH, Unterach, Austria) was used as a reference agent in the same concentration range.
row,Structure (SMILES),inhibition at 10 µM
1,C=Cc1c(C)c(O)c(OC)c2c3c(ccc12)C(C)(OC)C(=O)C=C3 (stereo not drawn) [Compound 3],< 10%
2,C=CC1=C(C)C(=O)C=C2c3ccc(O)c(C)c3CC[C@]21OC [Compound 4b],< 10%
3,C=CC1=C(C)C(=O)C=C2C3(OCC)C=CC(=O)C(C)=C3CCC21OCC (stereo not drawn) [Compound 5],< 10%

# Same assay, conditions: Homo sapiens, A2780, 30 μM; read-out: Growth inhibition (% ± SEM), A2780
row,Structure (SMILES),inhibition at 30 µM
1,C=Cc1c(C)c(O)c(OC)c2c3c(ccc12)C(C)(OC)C(=O)C=C3 (stereo not drawn) [Compound 3],< 10%
2,C=CC1=C(C)C(=O)C=C2c3ccc(O)c(C)c3CC[C@]21OC [Compound 4b],13.7 ± 2.81%
3,C=CC1=C(C)C(=O)C=C2C3(OCC)C=CC(=O)C(C)=C3CCC21OCC (stereo not drawn) [Compound 5],< 10%

# Same assay, conditions: Homo sapiens, A2780; MTT, 0.1–30 μM, 72 h, mean ± SEM; read-out: calculated IC50 values, A2780
row,Structure (SMILES),IC50
1,C=CC1=C(C)C(=O)C=C2c3ccc(O)c(C)c3CC[C@]21OC [Compound 4b],> 30 µM

# Tested on: MCF-7, T47D, HeLa, SiHa, C33A, A2780 cells
# Assay: MTT antiproliferative assay, panel of human gynecological cancer cell lines (result in words)
# Assay type: cell-based
# Conditions: not given
# Protocol: as §1, §2, §3
row,Structure (SMILES),antiproliferative activity (in words)
1,C=Cc1c(C)c(O)c(OC)c2c3c(ccc12)C(C)(OC)C(=O)C=C3 (stereo not drawn) [Compound 3],did not exert antiproliferative activity; also recorded: No significant activities
2,C=CC1=C(C)C(=O)C=C2c3ccc(O)c(C)c3CC[C@]21OC [Compound 4b],no relevant influence on the cell proliferation
3,C=CC1=C(C)C(=O)C=C2C3(OCC)C=CC(=O)C(C)=C3CCC21OCC (stereo not drawn) [Compound 5],did not exert antiproliferative activity; also recorded: No significant activities

# Tested on: NIH/3T3 mouse embryonic fibroblast cells
# Assay: MTT assay for tumor selectivity on NIH/3T3
# Assay type: cell-based
# Conditions: Mus musculus, NIH3T3; 10 μM; read-out: Growth inhibition (% ± SEM), NIH
# Protocol: as §1, §2, §3
row,Structure (SMILES),inhibition at 10 µM
1,C=CC1=C(C)C(=O)C=C2c3ccc(O)c(C)c3CC[C@]21OC [Compound 4b],< 10%

# Same assay, conditions: Mus musculus, NIH3T3; 30 μM; read-out: Growth inhibition (% ± SEM), NIH
row,Structure (SMILES),inhibition at 30 µM
1,C=CC1=C(C)C(=O)C=C2c3ccc(O)c(C)c3CC[C@]21OC [Compound 4b],< 10%

# Same assay, conditions: Mus musculus, NIH3T3; MTT, 0.1–30 μM, 72 h, mean ± SEM; read-out: calculated IC50 values, NIH/3T3
row,Structure (SMILES),IC50
1,C=CC1=C(C)C(=O)C=C2c3ccc(O)c(C)c3CC[C@]21OC [Compound 4b],> 30 µM

# Tested on: MCF-7 cells
# Assay: MTT antiproliferative assay on MCF-7
# Assay type: cell-based, human
# Conditions: Homo sapiens, MCF7, 10 μM; read-out: Growth inhibition (% ± SEM), MCF-7
# Protocol: as §1, §2, §3
row,Structure (SMILES),inhibition at 10 µM
1,C=Cc1c(C)c(O)c(OC)c2c3c(ccc12)C(C)(OC)C(=O)C=C3 (stereo not drawn) [Compound 3],22.7 ± 0.57%
2,C=CC1=C(C)C(=O)C=C2c3ccc(O)c(C)c3CC[C@]21OC [Compound 4b],24.4 ± 1.43%
3,C=CC1=C(C)C(=O)C=C2C3(OCC)C=CC(=O)C(C)=C3CCC21OCC (stereo not drawn) [Compound 5],< 10%

# Same assay, conditions: Homo sapiens, MCF7, 30 μM; read-out: Growth inhibition (% ± SEM), MCF-7
row,Structure (SMILES),inhibition at 30 µM
1,C=Cc1c(C)c(O)c(OC)c2c3c(ccc12)C(C)(OC)C(=O)C=C3 (stereo not drawn) [Compound 3],21.4 ± 0.34%
2,C=CC1=C(C)C(=O)C=C2c3ccc(O)c(C)c3CC[C@]21OC [Compound 4b],42 ± 1.94%
3,C=CC1=C(C)C(=O)C=C2C3(OCC)C=CC(=O)C(C)=C3CCC21OCC (stereo not drawn) [Compound 5],< 10%

# Same assay, conditions: Homo sapiens, MCF7; MTT, 0.1–30 μM, 72 h, mean ± SEM; read-out: calculated IC50 values, MCF-7
row,Structure (SMILES),IC50
1,C=CC1=C(C)C(=O)C=C2c3ccc(O)c(C)c3CC[C@]21OC [Compound 4b],> 30 µM

# Tested on: HeLa cells
# Assay: MTT antiproliferative assay on HeLa
# Assay type: cell-based, human
# Conditions: Homo sapiens, HeLa, 10 μM; read-out: Growth inhibition (% ± SEM), HeLa
# Protocol: as §1, §2, §3
row,Structure (SMILES),inhibition at 10 µM
1,C=Cc1c(C)c(O)c(OC)c2c3c(ccc12)C(C)(OC)C(=O)C=C3 (stereo not drawn) [Compound 3],< 10%
2,C=CC1=C(C)C(=O)C=C2c3ccc(O)c(C)c3CC[C@]21OC [Compound 4b],19 ± 2.11%
3,C=CC1=C(C)C(=O)C=C2C3(OCC)C=CC(=O)C(C)=C3CCC21OCC (stereo not drawn) [Compound 5],< 10%

# Same assay, conditions: Homo sapiens, HeLa, 30 μM; read-out: Growth inhibition (% ± SEM), HeLa
row,Structure (SMILES),inhibition at 30 µM
1,C=Cc1c(C)c(O)c(OC)c2c3c(ccc12)C(C)(OC)C(=O)C=C3 (stereo not drawn) [Compound 3],15 ± 1.11%
2,C=CC1=C(C)C(=O)C=C2c3ccc(O)c(C)c3CC[C@]21OC [Compound 4b],37.2 ± 0.72%
3,C=CC1=C(C)C(=O)C=C2C3(OCC)C=CC(=O)C(C)=C3CCC21OCC (stereo not drawn) [Compound 5],14.4 ± 1.51%

# Same assay, conditions: Homo sapiens, HeLa; MTT, 0.1–30 μM, 72 h, mean ± SEM; read-out: calculated IC50 values, HeLa
row,Structure (SMILES),IC50
1,C=CC1=C(C)C(=O)C=C2c3ccc(O)c(C)c3CC[C@]21OC [Compound 4b],> 30 µM

# Tested on: C33A cells
# Assay: MTT antiproliferative assay on C33A
# Assay type: cell-based, human
# Conditions: Homo sapiens, C-33-A, 10 μM; read-out: Growth inhibition (% ± SEM), C33a
# Protocol: as §1, §2, §3
row,Structure (SMILES),inhibition at 10 µM
1,C=Cc1c(C)c(O)c(OC)c2c3c(ccc12)C(C)(OC)C(=O)C=C3 (stereo not drawn) [Compound 3],< 10%
2,C=CC1=C(C)C(=O)C=C2c3ccc(O)c(C)c3CC[C@]21OC [Compound 4b],< 10%
3,C=CC1=C(C)C(=O)C=C2C3(OCC)C=CC(=O)C(C)=C3CCC21OCC (stereo not drawn) [Compound 5],< 10%

# Same assay, conditions: Homo sapiens, C-33-A, 30 μM; read-out: Growth inhibition (% ± SEM), C33a
row,Structure (SMILES),inhibition at 30 µM
1,C=Cc1c(C)c(O)c(OC)c2c3c(ccc12)C(C)(OC)C(=O)C=C3 (stereo not drawn) [Compound 3],14.2 ± 1.51%
2,C=CC1=C(C)C(=O)C=C2c3ccc(O)c(C)c3CC[C@]21OC [Compound 4b],35.4 ± 0.8%
3,C=CC1=C(C)C(=O)C=C2C3(OCC)C=CC(=O)C(C)=C3CCC21OCC (stereo not drawn) [Compound 5],10.3 ± 1.51%

# Same assay, conditions: Homo sapiens, C-33-A; MTT, 0.1–30 μM, 72 h, mean ± SEM; read-out: calculated IC50 values, C33A
row,Structure (SMILES),IC50
1,C=CC1=C(C)C(=O)C=C2c3ccc(O)c(C)c3CC[C@]21OC [Compound 4b],> 30 µM

# Tested on: SiHa cells
# Assay: MTT antiproliferative assay on SiHa
# Assay type: cell-based, human
# Conditions: Homo sapiens, SiHa, 10 μM; read-out: Growth inhibition (% ± SEM), SiHa
# Protocol: as §1, §2, §3
row,Structure (SMILES),inhibition at 10 µM
1,C=Cc1c(C)c(O)c(OC)c2c3c(ccc12)C(C)(OC)C(=O)C=C3 (stereo not drawn) [Compound 3],< 10%
2,C=CC1=C(C)C(=O)C=C2c3ccc(O)c(C)c3CC[C@]21OC [Compound 4b],< 10%
3,C=CC1=C(C)C(=O)C=C2C3(OCC)C=CC(=O)C(C)=C3CCC21OCC (stereo not drawn) [Compound 5],< 10%

# Same assay, conditions: Homo sapiens, SiHa, 30 μM; read-out: Growth inhibition (% ± SEM), SiHa
row,Structure (SMILES),inhibition at 30 µM
1,C=Cc1c(C)c(O)c(OC)c2c3c(ccc12)C(C)(OC)C(=O)C=C3 (stereo not drawn) [Compound 3],< 10%
2,C=CC1=C(C)C(=O)C=C2c3ccc(O)c(C)c3CC[C@]21OC [Compound 4b],< 10%
3,C=CC1=C(C)C(=O)C=C2C3(OCC)C=CC(=O)C(C)=C3CCC21OCC (stereo not drawn) [Compound 5],< 10%

# Same assay, conditions: Homo sapiens, SiHa; MTT, 0.1–30 μM, 72 h, mean ± SEM; read-out: calculated IC50 values, SiHa
row,Structure (SMILES),IC50
1,C=CC1=C(C)C(=O)C=C2c3ccc(O)c(C)c3CC[C@]21OC [Compound 4b],> 30 µM

# Tested on: T47D cells
# Assay: MTT antiproliferative assay on T47D
# Assay type: cell-based, human
# Conditions: Homo sapiens, T47D, 10 μM; read-out: Growth inhibition (% ± SEM), T47d
# Protocol: as §1, §2, §3
row,Structure (SMILES),inhibition at 10 µM
1,C=Cc1c(C)c(O)c(OC)c2c3c(ccc12)C(C)(OC)C(=O)C=C3 (stereo not drawn) [Compound 3],< 10%
2,C=CC1=C(C)C(=O)C=C2c3ccc(O)c(C)c3CC[C@]21OC [Compound 4b],16.5 ± 1.68%
3,C=CC1=C(C)C(=O)C=C2C3(OCC)C=CC(=O)C(C)=C3CCC21OCC (stereo not drawn) [Compound 5],< 10%

# Same assay, conditions: Homo sapiens, T47D, 30 μM; read-out: Growth inhibition (% ± SEM), T47d
row,Structure (SMILES),inhibition at 30 µM
1,C=Cc1c(C)c(O)c(OC)c2c3c(ccc12)C(C)(OC)C(=O)C=C3 (stereo not drawn) [Compound 3],15.5 ± 2.06%
2,C=CC1=C(C)C(=O)C=C2c3ccc(O)c(C)c3CC[C@]21OC [Compound 4b],28.1 ± 1.79%
3,C=CC1=C(C)C(=O)C=C2C3(OCC)C=CC(=O)C(C)=C3CCC21OCC (stereo not drawn) [Compound 5],14.1 ± 2.78%

# Same assay, conditions: Homo sapiens, T47D; MTT, 0.1–30 μM, 72 h, mean ± SEM; read-out: calculated IC50 values, T47D
row,Structure (SMILES),IC50
1,C=CC1=C(C)C(=O)C=C2c3ccc(O)c(C)c3CC[C@]21OC [Compound 4b],> 30 µM
